Results taken from patent US4985558A, “1,4-dihydropyridine derivative” (Nikken Chemicals Co., Ltd., priority 1988, dated 1991).
Values joined by “and” are separate entries in the source; they are usually repeats but may differ in a detail not shown here. Identical values can stand only once. Like-named read-outs stand apart in the source and are kept apart here.

Tests used:
rat rectum smooth muscle = test: Inhibitory effects on potassium contracture in rat rectum smooth muscle; type: cell-based; details: 5 min, K contraction 5.6 to 56.0 mM, read-out: Inhibition ratio; for inhibition at 0.1 µM: 10^-7 M; for inhibition at 0.01 µM: 10^-8 M
Protocol: Rat rectum (about 1.5 cm) was isolated and suspended in a Magnus tube. A Locke solution was employed as the nutrient solution, and a contraction of the intestinum rectum was caused by changing the potassium (K) concentration of this solution from 5.6 mmol (mM) to 56.0 mM. This contraction was a contraction through a membrane dependent Ca-channel mediated contraction based on depolarization by a K concentration change. The contraction was recorded by an FD-transducer and polygraph. The compounds of the present invention were permitted to act 5 minutes before changing the K concentration, and simultaneously with changing the K concentration. […] A judgement was made 5 minutes after changing the K concentration, and the difference in contraction before the concentration change was indicated as an inhibition % value. Verapamil and nicardipine were employed as the positive control compound .

[1] = tested on: vincristine (VCR)-resistant mouse leukemia (P388/VCR) cells; test: Antitumor agent potentiating effect in vincristine-resistant tumor bearing mouse (Example 11, i.p. 5 days); type: in vivo
Protocol: (§1) The potentiating effect of the antitumor agent (T/V) % was determined according to the formula shown below. Verapamil was employed as the positive Control compound. […] In the Tables, Compound 1 is the compound obtained in Example 1, Compound 2 that obtained in Example 2, Compound 3 that obtained in Example 3, Compound 4 that obtained in Example 4, and Compound 5 that obtained in Example 5. [formula]

ICR mice = test: acute toxicity test; details: mouse, in vivo;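 also: intraperitoneal dosing with deaths counted over 10 days of observation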
Protocol: Male 6-week-old ICR mice were divided into groups of 2 to 5 mice per group. […] The drugs to be tested were administered in varying amounts of 250 to 2000 mg/kg to 5 or 7 groups (a geometrical series of .cent.2), at a dose volume of 10 ml/kg. In the Table, the respective compounds have the same meanings as described above.

[2] = tested on: spontaneously hypertensive rats (SHR); details: rat, in vivo, ip
Protocol: The systolic blood pressure was measured by using spontaneously hypertensive rats (SHR), which are a model of hypertension when examine the hypotensive activities of the compounds of the present invention and the positive Control compound. The rats were warmed for 5 minutes in a warming box at 55° C., and their blood pressure then measured by a tail cuff plethysmograph. The compounds of the present invention were administered singly and intraperitoneally at a dose of 100 mg/kg and the positive Control compound was administered singly and intraperitoneally at a dose of 10 mg/kg. […] Blood pressure measurements were taken before administration and 60 minutes after administration. Nicardipine was employed as the positive Control compound.

[3] = tested on: vincristine (VCR)-resistant mouse leukemia (P388/VCR) cells; test: Antitumor agent potentiating effect in vincristine-resistant tumor bearing mouse (Example 12, i.p.); type: in vivo
Protocol: as §1
The potentiating effect of the antitumor agent (T/V) % was determined as described above (Example 11). Nicardipine was employed as the positive Control compound, and was administered intraperitoneally for 10 days. […] In the Tables, Compound 6 is the compound obtained in Example 6, Compound 7 that obtained in Example 7, and Compound 8 that obtained in Example 8.

[4] = tested on: vincristine (VCR)-resistant mouse leukemia (P388/VCR) cells; test: Antitumor agent potentiating effect in vincristine-resistant tumor bearing mouse (Example 13, oral compound, 10 days); type: in vivo
[5] = tested on: antitumor drug sensitive cells P388/S of mouse P388 leukemia cells; test: VCR alone in mice bearing drug sensitive P388/S leukemia (Example 13, Table 8(B)); type: in vivo
Protocol: The compounds of this invention were administered orally after the treatment described above, and VCR was administered as described above. The progress thereof was observed and the survival days for respective animals were determined to obtain the survival ratio (T/C) % relative to the Control. The antitumor agent potentiating effect (T/V) % was determined as described above. In the Table, Compound 8 is the compound obtained in Example 8.

[6] = compound 100 mg/kg i.p. + VCR 30 μg/kg i.p.
[7] = compound alone 100 mg/kg i.p., no VCR
[8] = compound 50 mg/kg/day oral + VCR 100 μg/kg/day i.p.
[9] = compound 100 mg/kg/day oral + VCR 10 μg/kg/day i.p.
[10] = compound 100 mg/kg/day oral + VCR 30 μg/kg/day i.p.
[11] = compound 100 mg/kg/day oral + VCR 100 μg/kg/day i.p.
[12] = compound 200 mg/kg/day oral + VCR 10 μg/kg/day i.p.
[13] = compound 200 mg/kg/day oral + VCR 30 μg/kg/day i.p.
[14] = compound 200 mg/kg/day oral + VCR 100 μg/kg/day i.p.
[15] = compound 300 mg/kg/day oral + VCR 10 μg/kg/day i.p.
[16] = compound 300 mg/kg/day oral + VCR 30 μg/kg/day i.p.
[17] = positive control 50 mg/kg i.p., 10 days + VCR 30 μg/kg
[18] = positive control 75 mg/kg i.p., 10 days + VCR 30 μg/kg
[19] = positive control alone 50 mg/kg i.p., 10 days
[20] = positive control alone 75 mg/kg i.p., 10 days
[21] = VCR 30 μg/kg i.p. alone (reference = 100)
[22] = positive control 30 mg/kg + VCR 30 μg/kg
[23] = positive control 60 mg/kg + VCR 30 μg/kg

## CC1=C(C(=O)OCCc2ccccn2)C(C2=COCCO2)C(C(=O)OCCc2ccccn2)=C(C)N1 [Compound 4, bis[2-(2-pyridyl)ethyl]4-[2-(5,6-dihydro-p-dioxinyl)]-2,6-dimethyl-1,4-dihydropyridine-3,5-dicarboxylate]
Rat rectum smooth muscle
  inhibition at 0.1 µM: 5.2%
  inhibition at 0.01 µM: -6.9%
[1]; [6]
  Potentiating effect T/V: 121%
  Survival Days (Mean ± SD): 13.7 ± 1.6 days
  Survival ratio T/C: 126%

## CCc1ccc(COC(=O)C2=C(C)NC(C)=C(C(=O)OCc3ccc(CC)cn3)C2C2=COCCO2)nc1 [Compound 5, bis[2-(5-ethylpyridyl)methyl]4-[2-(5,6-dihydro-p-dioxinyl)-]2,6-dimethyl-1,4-dihydropyridine-3,5-dicarboxylate]
[1]; [6]
  Potentiating effect T/V: 131%
  Survival Days (Mean ± SD): 14.8 ± 1.2 days
  Survival ratio T/C: 136%
ICR mice
  Mortality: 0/2 and 0/3
[2]; 100 mg/kg
  Blood pressure change: -34 mmHg
  Systolic Blood Pressure 60 minutes after administration: 187 mmHg

## CC1=C(C(=O)OCc2cccnc2)C(C2=CSCCS2)C(C(=O)OCc2cccnc2)=C(C)N1 [Compound 7, bis(3-pyridylmethyl) 4-[2-(5,6-dihydro-1,4-dithiinyl)]-2,6-dimethyl-1,4-dihydropyridine-3,5-dicarboxylate]
[3]; [6]
  Potentiating effect T/V: 118%
  Survival Days (Mean ± SD): 13.5 ± 0.8 days
  Survival ratio T/C: 131%
[3]; [7]
  Survival Days (Mean ± SD): 11.0 ± 0.6 days
  Survival ratio T/C: 107%
[2]; 100 mg/kg
  Blood pressure change: -38 mmHg
  Systolic Blood Pressure 60 minutes after administration: 189 mmHg

## CC1=C(C(=O)OCc2ccncc2)C(C2=C(C)SCCS2)C(C(=O)OCc2ccncc2)=C(C)N1 [Compound 8, bis(4-pyridylmethyl) 4-[2-(3-methyl-5,6-dihydro-1,4-dithiinyl)-]2,6-dimethyl-1,-4-dihydropyridine-3,5-dicarboxylate]
[4]; combination with VCR, P388/VCR, Table 8
  life prolonging effect compared with VCR alone in P388/S: has an effect comparable to the prolonging effect when VCR is administered alone to P388/S which is a vincristine-sensitive clone (Table 8), thus completely overcoming the VCR resistance
[4]; [8]
  Potentiating effect T/V: 120%
  Survival Days (Mean ± SD): 12.5 ± 1.6 days
  Survival ratio T/C: 132%
[4]; [9]
  Potentiating effect T/V: 120%
  Survival Days (Mean ± SD): 11.3 ± 0.8 days
  Survival ratio T/C: 119%
[4]; [10]
  Potentiating effect T/V: 118%
  Survival Days (Mean ± SD): 12.2 ± 1.2 days
  Survival ratio T/C: 128%
[4]; [11]
  Potentiating effect T/V: 130%
  Survival Days (Mean ± SD): 13.5 ± 1.4 days
  Survival ratio T/C: 142%
[4]; [12]
  Potentiating effect T/V: 131%
  Survival Days (Mean ± SD): 12.3 ± 0.5 days
  Survival ratio T/C: 129%
[4]; [13]
  Potentiating effect T/V: 139%
  Survival Days (Mean ± SD): 14.3 ± 1.0 days
  Survival ratio T/C: 151%
[4]; [14]
  Potentiating effect T/V: 156%
  Survival Days (Mean ± SD): 16.2 ± 2.4 days
  Survival ratio T/C: 171%
[4]; [15]
  Potentiating effect T/V: 144%
  Survival Days (Mean ± SD): 13.5 ± 0.5 days
  Survival ratio T/C: 142%
[4]; [16]
  Potentiating effect T/V: 149%
  Survival Days (Mean ± SD): 15.3 ± 1.5 days
  Survival ratio T/C: 161%
[3]; [6]
  Potentiating effect T/V: 138%
  Survival Days (Mean ± SD): 13.5 ± 0.8 days
  Survival ratio T/C: 138%
[3]; [7]
  Survival Days (Mean ± SD): 9.7 ± 1.0 days
  Survival ratio T/C: 99%
[2]; 100 mg/kg
  Blood pressure change: -11 mmHg
  Systolic Blood Pressure 60 minutes after administration: 187 mmHg

## COC(=O)C1=C(C)NC(C)=C(C(=O)OCCN(C)Cc2ccccc2)C1c1cccc([N+](=O)[O-])c1 (stereo not drawn) [Nicardipine, reference compound]
Rat rectum smooth muscle
  inhibition at 0.01 µM: 73.1%
[3]; [17]
  Potentiating effect T/V: 112%
  Survival Days (Mean ± SD): 12.3 ± 0.8 days
  Survival ratio T/C: 128%
[3]; [18]
  Potentiating effect T/V: 125%
  Survival Days (Mean ± SD): 13.7 ± 1.2 days
  Survival ratio T/C: 143%
[3]; [19]
  Survival Days (Mean ± SD): 10.6 ± 1.5 days
  Survival ratio T/C: 110%
[3]; [20]
  Survival Days (Mean ± SD): 11.2 ± 1.1 days
  Survival ratio T/C: 117%
[2]; 10 mg/kg
  Blood pressure change: -122 mmHg
  Systolic Blood Pressure 60 minutes after administration: 86 mmHg

## CC[C@]1(O)C[C@H]2CN(CCc3c([nH]c4ccccc34)[C@@](C(=O)OC)(c3cc4c(cc3OC)N(C=O)[C@H]3[C@@](O)(C(=O)OC)[C@H](OC(C)=O)[C@]5(CC)C=CCN6CC[C@]43[C@@H]65)C2)C1 [VCR, vincristine, reference compound]
[1]; VCR 30 μg/kg i.p. alone
  Survival Days (Mean ± SD): 12.5 ± 1.4 days and 10.5 ± 0.8 days and 11.3 ± 1.0 days and 11.8 ± 1.3 days
  Survival ratio T/C: 104%
[1]; [21]
  Potentiating effect T/V: 100%
[5]; VCR 10 μg/kg/day alone
  Survival Days (Mean ± SD): 11.8 ± 0.8 days
  Survival ratio T/C: 144%
[5]; VCR 30 μg/kg/day alone
  Survival Days (Mean ± SD): 13.3 ± 0.9 days
  Survival ratio T/C: 162%
[5]; VCR 100 μg/kg/day alone
  Survival Days (Mean ± SD): 15.2 ± 0.8 days
  Survival ratio T/C: 185%
[4]; VCR 10 μg/kg/day i.p. alone
  Survival Days (Mean ± SD): 9.4 ± 0.7 days
  Survival ratio T/C: 99%
[4]; VCR 10 μg/kg/day i.p. alone (reference = 100)
  Potentiating effect T/V: 100%
[4]; VCR 30 μg/kg/day i.p. alone
  Survival Days (Mean ± SD): 10.3 ± 1.5 days
[4]; VCR 30 μg/kg/day i.p. alone (reference = 100)
  Potentiating effect T/V: 100%
[4]; VCR 100 μg/kg/day i.p. alone
  Survival Days (Mean ± SD): 10.4 ± 0.9 days
[4]; VCR 100 μg/kg/day i.p. alone (reference = 100)
  Potentiating effect T/V: 100%
[3]; VCR 30 μg/kg i.p. alone
  Survival Days (Mean ± SD): 11.4 ± 1.0 days and 9.8 ± 0.8 days and 11.0 ± 1.8 days
  Survival ratio T/C: 100%
[3]; [21]
  Potentiating effect T/V: 100%

## COc1ccc(CCN(C)CCCC(C#N)(c2ccc(OC)c(OC)c2)C(C)C)cc1OC (stereo not drawn) [Verapamil, reference compound]
Rat rectum smooth muscle
  inhibition at 0.1 µM: 50.2%
  inhibition at 0.01 µM: 13.6%
[1]; [22]
  Potentiating effect T/V: 121%
  Survival Days (Mean ± SD): 14.3 ± 1.6 days
  Survival ratio T/C: 134%
[1]; [23]
  Potentiating effect T/V: 130%
  Survival Days (Mean ± SD): 15.3 ± 0.5 days
  Survival ratio T/C: 143%
